# Source: PMC11269933, “MAPK/ERK-PK(Ser11) pathway regulates divergent thermal metabolism of two congeneric oyster species” (iScience, 2024)
# What was measured:
# [1] = target: T1, CgPK (Magallana gigas, UniProt Z9A5V8HWU5); assay: SPR (BIAcore T200, CM5 chip, anti-His capture), […] Langmuir fit; type: binding; conditions: PBS-P+ analyte buffer, running buffer HBS-EP+ pH 7.5, mimics dephosphorylation
# T1 construct: full-length CDS in pET-32a, 6xHis tags at N- and C-ends, expressed in E. coli; captured on CM5 chip by anti-His antibody
# [2] = target: T1, CgPK; assay: as above; type: binding; conditions: PBS-P+ analyte buffer, running buffer HBS-EP+ pH 7.5, recombinant from E. coli
Kd ([1]; PEP 100-1600 nM) [nM],Kd ([2]; PEP 100-1600 nM) [nM],Kd ([1]; ADP 1.25-10 uM) [nM],Kd ([2]; ADP 1.25-10 uM) [nM],SMILES
93.4,9.75,,,C=C(OP(=O)(O)O)C(=O)O [PEP]
,,72.5,41.7,Nc1ncnc2c1ncn2[C@@H]1O[C@H](COP(=O)(O)OP(=O)(O)O)[C@@H](O)[C@H]1O [ADP]
